PMC7616177, “From structure to clinic: Design of a muscarinic M1 receptor agonist with the potential to treat Alzheimer’s disease” (Cell, 2021)
Where two headings read alike, the source gives them in different places. One block for each compound: values may come before it.

Columns and labels:
[1] = molecular target: T1, human M1 receptor (Homo sapiens, UniProt P11229); assay: M1-receptor functional agonist assays (pERK1/2 and calcium mobilisation) for hits and SAR; assay type: cell-based
T1 construct: expressed in transfected cells
T1 sequence (P11229 1-460): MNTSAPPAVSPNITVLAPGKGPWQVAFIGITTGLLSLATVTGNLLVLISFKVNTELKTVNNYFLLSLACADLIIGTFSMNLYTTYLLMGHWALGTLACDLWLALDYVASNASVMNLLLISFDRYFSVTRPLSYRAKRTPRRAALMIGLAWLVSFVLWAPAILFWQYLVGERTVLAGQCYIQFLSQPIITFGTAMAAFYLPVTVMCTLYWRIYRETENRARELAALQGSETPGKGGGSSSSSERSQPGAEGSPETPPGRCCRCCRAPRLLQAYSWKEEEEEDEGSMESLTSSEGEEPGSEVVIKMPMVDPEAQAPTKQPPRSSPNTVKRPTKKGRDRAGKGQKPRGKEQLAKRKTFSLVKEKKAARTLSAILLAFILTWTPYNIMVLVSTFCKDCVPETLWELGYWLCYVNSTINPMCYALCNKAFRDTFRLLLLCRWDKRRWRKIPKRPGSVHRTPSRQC

[2] = molecular target: T2, M3-receptor (Homo sapiens, UniProt P20309); assay: M3-receptor functional agonist assay; assay type: cell-based
T2 construct: expressed in transfected cells
Method: (§1) Functional assays were performed using the Alphascreen Surefire phopho-ERK1/2 assay. […] Once adhered, cells were serum starved overnight. Agonist stimulation was performed by the addition of […] agonist to the cells for a pre-optimized 5 min period (37°C). Media was removed and 50 μl of lysis buffer added. After 15 min a 4 μl sample was transferred to a 384-well plate and 7 μl of detection mixture added.

[3] = molecular target: T3, M2-receptor (Homo sapiens, UniProt P08172); assay: M2-receptor functional agonist assay; assay type: cell-based; set-up: expressed in transfected cells
T3 sequence (P08172 1-466): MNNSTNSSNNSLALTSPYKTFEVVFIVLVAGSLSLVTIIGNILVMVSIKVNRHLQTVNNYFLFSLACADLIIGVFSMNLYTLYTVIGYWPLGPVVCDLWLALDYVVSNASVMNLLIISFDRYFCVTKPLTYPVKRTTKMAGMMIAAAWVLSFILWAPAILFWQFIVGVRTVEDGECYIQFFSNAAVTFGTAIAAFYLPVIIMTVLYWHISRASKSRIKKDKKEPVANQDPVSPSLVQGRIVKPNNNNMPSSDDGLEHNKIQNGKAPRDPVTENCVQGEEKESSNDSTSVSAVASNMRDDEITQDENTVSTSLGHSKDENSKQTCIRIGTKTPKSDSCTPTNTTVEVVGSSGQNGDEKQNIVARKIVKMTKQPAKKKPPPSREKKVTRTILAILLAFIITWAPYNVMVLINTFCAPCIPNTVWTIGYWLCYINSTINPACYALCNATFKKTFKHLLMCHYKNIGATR
Method: as §1

[4] = molecular target: T4, M4-receptor (Homo sapiens, UniProt P08173); assay: M4-receptor functional agonist assay; assay type: cell-based; set-up: expressed in transfected cells; settings: for EC50: read-out: M4-receptor EC50
T4 sequence (P08173 1-479): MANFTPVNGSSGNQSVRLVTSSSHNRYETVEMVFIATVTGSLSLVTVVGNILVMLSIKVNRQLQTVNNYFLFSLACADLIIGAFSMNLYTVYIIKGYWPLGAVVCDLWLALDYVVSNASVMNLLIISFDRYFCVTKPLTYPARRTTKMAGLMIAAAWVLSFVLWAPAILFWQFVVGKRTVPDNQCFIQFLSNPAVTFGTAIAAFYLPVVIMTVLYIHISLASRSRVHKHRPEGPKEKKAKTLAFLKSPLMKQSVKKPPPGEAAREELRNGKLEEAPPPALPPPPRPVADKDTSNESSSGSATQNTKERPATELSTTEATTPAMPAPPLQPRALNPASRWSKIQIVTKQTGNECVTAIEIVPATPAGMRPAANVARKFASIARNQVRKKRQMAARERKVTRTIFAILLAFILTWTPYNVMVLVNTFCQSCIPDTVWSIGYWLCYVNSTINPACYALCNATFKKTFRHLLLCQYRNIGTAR
Method: as §1

[5] = system: Wistar rats; assay: Scopolamine-induced amnesia in passive avoidance; assay type: in vivo, rat; settings: rat passive avoidance, donepezil 0.01 mg/kg
Method: Male adult Wistar rats (Harlan, UK; approximately 11 weeks of age) were acclimatised to the experimental rooms for three days (study days 1-3) and handled for a further two days (study days 4 and 5) prior to the experiment.
Donepezil (0.01 and 0.1 mg/kg) was administered via intraperitoneal injection (in saline) 60 min prior to training. Rats were trained in a single-trial, step-through, light-dark passive avoidance paradigm. The training apparatus consisted of a chamber 300 mm in length, 260 mm wide, and 270 mm in height. The front and top were transparent, allowing the experimenter to observe the behavior of the animal inside the apparatus. The chamber was divided into two compartments, separated by a central shutter that contained a small opening (50 mm wide and 75 mm high) set close to the front of the chamber. The smaller of the compartments measured 90 mm in width and contained a low-light (~200 lux) illumination source. The larger compartment measured 210 mm in width and was not illuminated. The floor of this dark compartment consisted of a grid of 16 horizontal stainless-steel bars that were 5 mm in diameter and spaced 12.5 mm apart. A current generator supplied 0.75 mA to the grid floor, which was scrambled once every 0.5 s across the 16 bars.
Animals were placed facing the rear of the light compartment of the apparatus, immediately after which, spontaneous behavior was assessed. The timer was started once the animal completely turned to face the front of the chamber. Latency to enter the dark chamber was recorded, and having completely entered the dark compartment foot shock was administered to the animal, which immediately returned to the light compartment. Animals were then returned to their home cages. Between each training session, both compartments of the chamber were cleaned to remove any confounding olfactory cues. Vehicle (saline) or scopolamine (1 mg/kg) was administered to rats 6 hours after training. Recall of the inhibitory stimulus was evaluated 24 hour post-training on study day 7, by returning the animal into the light chamber and recording their latency to enter the dark chamber, a criterion time of 600 s was employed. Observation of the animals was made by overhead video camera linked to a monitor behind a screened area. Animal treatment was blinded to the observer.

[6] = SAR, Table S4, read-out: M1-receptor agonist activity EC50

T2 sequence (P20309 whole entry): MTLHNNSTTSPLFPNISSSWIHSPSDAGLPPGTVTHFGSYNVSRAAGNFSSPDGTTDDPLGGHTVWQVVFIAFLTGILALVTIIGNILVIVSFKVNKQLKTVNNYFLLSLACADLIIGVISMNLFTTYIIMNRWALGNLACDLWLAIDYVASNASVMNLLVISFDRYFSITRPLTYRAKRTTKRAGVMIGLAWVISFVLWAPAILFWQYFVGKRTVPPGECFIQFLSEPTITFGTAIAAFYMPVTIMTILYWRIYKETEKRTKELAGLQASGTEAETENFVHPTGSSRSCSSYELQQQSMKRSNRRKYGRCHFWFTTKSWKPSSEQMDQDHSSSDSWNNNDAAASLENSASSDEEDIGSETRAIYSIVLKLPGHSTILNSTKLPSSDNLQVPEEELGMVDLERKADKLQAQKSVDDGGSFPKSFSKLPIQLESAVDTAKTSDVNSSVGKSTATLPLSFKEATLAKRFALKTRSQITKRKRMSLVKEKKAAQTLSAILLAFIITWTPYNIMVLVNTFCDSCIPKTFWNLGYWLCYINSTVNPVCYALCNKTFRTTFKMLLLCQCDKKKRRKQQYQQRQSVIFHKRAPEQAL

SMILES: CCOC(=O)N1CCC[C@@H](N2CCC(C(=O)NC3(C)CCC3)CC2)CC1 [(R)-Compound 7]
EC50 [1, 6]: 0.398 µM | EC50 ([2]; read-out: M3-receptor EC50): > 20 µM | EC50 ([3]; read-out: M2-receptor EC50): > 20 µM | EC50 [4]: 2.5 µM

SMILES: Cc1cc(F)c2[nH]c(=O)n(C3CCN(C4CCOCC4)CC3)c2c1 [GSK1034702, reference compound]
M2-receptor agonist activity [3]: significant M2-receptor agonist activity

SMILES: COc1cc2c(cc1OC)C(=O)C(CC1CCN(Cc3ccccc3)CC1)C2 (stereo not drawn) [donepezil, reference compound]
Response alone [5]: inactive

Further lines, results first:

EC50 ([1]; fragment hit, read-out: EC50 at the M1-receptor): 3.5 µM
SMILES: CCOC(=O)N1CCC(N2CCC(C(N)=O)CC2)CC1 [Compound 4]

EC50 [1, 6]: 0.316 µM | M2-receptor agonist activity [3]: weak | M4-receptor agonist activity [4]: weak
SMILES: CCOC(=O)N1CCC(N2CCC(C(=O)NCC(C)C)CC2)CC1 [Compound 5]

EC50 ([1]; calcium assays, read-out: Potency at the M1-receptor in calcium assays EC50): 0.079 µM | M3-receptor agonist activity [2]: no detectable agonist activity | M2-receptor agonist activity [3]: no detectable agonist activity | Lower potency at M4-receptors relative to M1 ([4]; M4 vs M1): ten-fold | EC50 [4]: 0.794 µM
SMILES: CCOC(=O)N1CCCC(N2CCC(C(=O)NCC(C)C)CC2)CC1 (stereo not drawn) [Compound 6]
